According to the CheMixHub ionic liquid set:

Test: xn = mol fraction of the nth substance listed

CC(=O)[O-].CC[NH3+] + O
298.15 K, 101 kPa
Conditions | electrical conductivity [S/m]
x2 = 0.6519 | 1.55
x2 = 0.8802 | 2.91
x2 = 0.9004 | 3.01
x2 = 0.91 | 3.05
x2 = 0.93 | 3.06

CCCCCCCCCCCCCCCC[n+]1ccccc1.O=C([O-])c1ccccc1O + O
electrical conductivity [S/m], 101 kPa
Conditions | 293.15 K | 298.15 K | 303.15 K | 308.15 K | 313.15 K
x1 = 7.2e-07 | 0.00046 | 0.000513 | 0.000569 | 0.000627 | 0.000668
x1 = 1.44e-06 | 0.000708 | 0.000794 | 0.000883 | 0.000973 | 0.00122
x1 = 1.98e-06 | 0.000945 | 0.00105 | 0.00117 | 0.00129 | –
x1 = 2.34e-06 | 0.00114 | 0.00128 | 0.00144 | 0.00159 | 0.00177
x1 = 2.88e-06 | 0.00129 | 0.00148 | 0.00168 | 0.00186 | –
x1 = 3.24e-06 | – | – | – | – | 0.0023
x1 = 3.42e-06 | 0.00142 | 0.00163 | 0.00186 | 0.0021 | –
x1 = 3.96e-06 | 0.00156 | 0.00178 | 0.00202 | 0.0023 | 0.00268
x1 = 4.32e-06 | 0.00167 | 0.00191 | 0.00217 | 0.00247 | –
x1 = 4.69e-06 | – | – | 0.00232 | 0.00263 | 0.003
x1 = 4.87e-06 | 0.00181 | 0.00205 | – | – | –
x1 = 5.23e-06 | 0.00187 | 0.00217 | 0.00247 | 0.0028 | –
x1 = 5.41e-06 | – | – | – | – | 0.00324
x1 = 5.59e-06 | 0.00204 | 0.00231 | 0.00261 | 0.00294 | –
x1 = 5.95e-06 | 0.00212 | 0.00242 | 0.00273 | 0.00309 | 0.00348
x1 = 6.31e-06 | 0.00224 | 0.00254 | 0.00285 | 0.00321 | –
x1 = 6.49e-06 | 0.00231 | 0.00263 | 0.00296 | 0.00333 | 0.00375
x1 = 6.85e-06 | 0.00243 | 0.00274 | 0.00307 | 0.00345 | –
x1 = 7.03e-06 | – | – | – | – | 0.00396
x1 = 7.21e-06 | 0.00251 | 0.00283 | 0.00319 | 0.00358 | –
x1 = 7.39e-06 | – | – | – | – | 0.00412
x1 = 7.75e-06 | – | – | – | – | 0.00431
x1 = 8.11e-06 | – | – | – | – | 0.00447
x1 = 8.65e-06 | – | – | – | – | 0.00464

CCCCCCCCCCCCCC[P+](CCCCCC)(CCCCCC)CCCCCC.O=S(=O)([N-]S(=O)(=O)C(F)(F)F)C(F)(F)F + O
Conditions | viscosity [mPa·s]
328.15 K, 100 kPa, x2 = 0.088 | 65.75

CCCCCCCCCCCCCCn1cc[n+](C)c1.[Br-] + O
electrical conductivity [S/m], 101 kPa, frequency 0.001 MHz
Conditions | 298.15 K | 308.15 K | 318.15 K
x1 = 4.74e-06 | 0.00249 | 0.00401 | 0.00409
x1 = 9.35e-06 | 0.00459 | 0.00671 | 0.00708
x1 = 1.386e-05 | 0.0065 | 0.0093 | 0.0101
x1 = 1.825e-05 | 0.00834 | 0.011 | 0.0127
x1 = 2.252e-05 | 0.0101 | 0.0135 | 0.0154
x1 = 2.669e-05 | 0.0119 | 0.0154 | 0.0182
x1 = 3.076e-05 | 0.0136 | 0.0173 | 0.0206
x1 = 3.474e-05 | 0.0152 | 0.0199 | 0.0232
x1 = 3.862e-05 | 0.0167 | 0.0218 | 0.0253
x1 = 4.24e-05 | 0.0183 | 0.0238 | 0.028
x1 = 4.613e-05 | 0.0192 | 0.0252 | 0.0303
x1 = 4.973e-05 | 0.0199 | 0.0265 | 0.0322
x1 = 5.334e-05 | 0.0204 | 0.0273 | 0.0335
x1 = 5.676e-05 | 0.0209 | 0.0282 | 0.0345
x1 = 6e-05 | 0.0213 | 0.0288 | 0.0356
x1 = 6.343e-05 | 0.0217 | 0.0294 | 0.0365
x1 = 6.667e-05 | 0.0221 | 0.03 | 0.0372
x1 = 6.973e-05 | 0.0225 | 0.0305 | 0.0377
x1 = 7.28e-05 | 0.0229 | 0.0311 | 0.0383
x1 = 7.586e-05 | 0.0233 | 0.0316 | 0.0389
x1 = 7.892e-05 | 0.0236 | 0.0321 | 0.0396
x1 = 8.18e-05 | 0.024 | 0.0326 | 0.0408
x1 = 8.451e-05 | 0.0243 | 0.0329 | 0.0414
x1 = 8.739e-05 | 0.0246 | 0.0333 | 0.0418

CCCCCCCC[N+](C)(CCCCCCCC)CCCCCCCC.O=S(=O)([N-]S(=O)(=O)C(F)(F)F)C(F)(F)F + O
100 kPa, x1 = 0.8468
Conditions | viscosity [mPa·s]
313.15 K | 239
343.15 K | 65

CCCCCCCC[n+]1ccn(C)c1.F[P-](F)(F)(F)(F)F + O
101 kPa, x2 = 0.212
Conditions | electrical conductivity [S/m] | viscosity [mPa·s]
293.15 K | – | 500
295.15 K | 0.12 | –

CCCCCCCC[n+]1ccn(C)c1.O=C([O-])[C@@H]1CCCN1 + O
298.15 K, 100 kPa, frequency 0.001 MHz
Conditions | electrical conductivity [S/m]
x1 = 0.001745 | 0.149
x1 = 0.002409 | 0.209
x1 = 0.002947 | 0.264
x1 = 0.003555 | 0.308
x1 = 0.004199 | 0.369
x1 = 0.004895 | 0.425
x1 = 0.005502 | 0.483
x1 = 0.006143 | 0.531
x1 = 0.006819 | 0.572
x1 = 0.0076 | 0.608
x1 = 0.008416 | 0.648
x1 = 0.009336 | 0.688
x1 = 0.01018 | 0.725
x1 = 0.01137 | 0.783
x1 = 0.01233 | 0.819
x1 = 0.01355 | 0.879

CCCCCCCCn1cc[n+](C)c1.F[B-](F)(F)F + O
100 kPa
Conditions | viscosity [mPa·s]
298.15 K, x2 = 0.9487 | 5.25
308 K, x1 = 0.5482 | 34.91

CCCCCCCCn1cc[n+](C)c1.[Br-] + O
electrical conductivity [S/m]
Conditions | 298.15 K | 308.15 K
100 kPa, frequency 0.001 MHz, x1 = 0.0006843 | 0.249 | –
100 kPa, frequency 0.001 MHz, x1 = 0.0009721 | 0.348 | –
100 kPa, frequency 0.001 MHz, x1 = 0.001278 | 0.462 | –
100 kPa, frequency 0.001 MHz, x1 = 0.001601 | 0.576 | –
100 kPa, frequency 0.001 MHz, x1 = 0.001889 | 0.683 | –
100 kPa, frequency 0.001 MHz, x1 = 0.002176 | 0.778 | –
100 kPa, frequency 0.001 MHz, x1 = 0.002445 | 0.88 | –
100 kPa, frequency 0.001 MHz, x1 = 0.002714 | 0.965 | –
100 kPa, frequency 0.001 MHz, x1 = 0.003072 | 1.06 | –
100 kPa, frequency 0.001 MHz, x1 = 0.003341 | 1.1 | –
100 kPa, frequency 0.001 MHz, x1 = 0.003681 | 1.15 | –
100 kPa, frequency 0.001 MHz, x1 = 0.004092 | 1.22 | –
100 kPa, frequency 0.001 MHz, x1 = 0.004592 | 1.28 | –
101 kPa, frequency 1 MHz, x1 = 0.0001962 | 0.1011 | 0.122

Conditions | electrical conductivity [S/m] | viscosity [mPa·s]
298.15 K, 100 kPa, x1 = 6.847e-05 | – | 0.892
298.15 K, 100 kPa, x1 = 0.0003279 | – | 0.899
298.15 K, 101 kPa, x1 = 1.982e-05 | – | 0.891
298.15 K, 101 kPa, x1 = 3.243e-05 | – | 0.892
298.15 K, 101 kPa, x1 = 0.0001962 | – | 0.912
298.15 K, 101 kPa, x1 = 0.001831 | – | 0.965
298.15 K, 101 kPa, x1 = 0.003519 | 1.17 | –
298.15 K, 101 kPa, x1 = 0.003598 | – | 1.025
298.15 K, 101 kPa, x1 = 0.00377 | 1.23 | –
298.15 K, 101 kPa, x1 = 0.003967 | 1.26 | –
298.15 K, 101 kPa, x1 = 0.004163 | 1.3 | –
298.15 K, 101 kPa, x1 = 0.004378 | 1.34 | –
298.15 K, 101 kPa, x1 = 0.004538 | 1.36 | –
298.15 K, 101 kPa, x1 = 0.004717 | 1.39 | –
298.15 K, 101 kPa, x1 = 0.004895 | 1.41 | –
298.15 K, 101 kPa, x1 = 0.005109 | 1.45 | –
298.15 K, 101 kPa, x1 = 0.005288 | 1.48 | –
298.15 K, 101 kPa, x1 = 0.005443 | – | 1.103
298.15 K, 101 kPa, x1 = 0.005484 | 1.51 | –
298.15 K, 101 kPa, x1 = 0.005698 | 1.54 | –
298.15 K, 101 kPa, x1 = 0.005894 | 1.56 | –
298.15 K, 101 kPa, x1 = 0.007132 | – | 1.172
303.15 K, 100 kPa, x1 = 0.0002 | – | 0.803
308.15 K, 100 kPa, x1 = 0.0003279 | – | 0.726
308.15 K, 101 kPa, x1 = 0.0001962 | – | 0.736
313.15 K, 100 kPa, x1 = 0.0002 | – | 0.657

CCCC[n+]1ccn(C)c1.COP(=O)([O-])OC + O
101 kPa
Conditions | viscosity [mPa·s]
298.15 K, x2 = 0.398 | 251
303.15 K, x2 = 0.201 | 291
303.15 K, x2 = 0.601 | 81.6
313.15 K, x2 = 0.799 | 15.81
318.15 K, x2 = 0.398 | 78.8
328.15 K, x2 = 0.398 | 49.68

CCCC[n+]1ccn(C)c1.O=S(=O)([O-])C(F)(F)F + O
Conditions | viscosity [mPa·s]
343.15 K, 101 kPa, x2 = 0.1939 | 10.55
